Here are results for 57 compounds from patent US11173137B2, “Compositions and methods to modulate chloride ion channel activity” (The Board of Trustees of the Leland Stanford Junior …, priority 2018, dated 2021).

The target of test [1] is T1, CLC-2 (Homo sapiens (Human), UniProt P51788). As to the kind of experiment: IonWorks Barracuda automated patch-clamp electrophysiology, human CLC-2 cell line. The test is classed as cell-based. To be noted: for % inhibition at the concentration listed (in parenthesis): CLC-2, at the concentration listed in the IC50 cell, negative = increase in peak current. From the text:
FIG. 8, panels A and B depict graphically the Selectivity between CLC-1 and CLC-2. […]

In test [2] the target is T1, CLC-2. To be noted: cited from earlier work.
Test [3] has as its target CLC-1 (Homo sapiens (Human), UniProt P35523). As to the kind of experiment: IonWorks Barracuda automated patch-clamp electrophysiology, CLC-1. In kind it is cell-based. To be noted: for IC50: Table 2. How it is done: If the IC50 was greater than the highest concentration tested, this concentration is listed along with the percent inhibition at this concentration (in parenthesis).
FIG. 8, panels A and B depict graphically the Selectivity between CLC-1 and CLC-2. […] Data points represent the mean current block at 16 different FA44 concentrations (n=4-8), using the IonWorks™ Barracuda. […] Panel B depicts a summary graph showing the mean inhibition of CLC-1 (left bar) or CLC-2 (right bar) current at 30 μM, illustrating the improvement in both selectivity and potency from the hit compound MCFA to the exemplary compound FA44.
On the technique in general: The patch-clamp technique gives a direct electrical read-out from membranes.

[4] abbreviates: n = 4 cells, four concentrations of each compound, IonWorks Barracuda, read-out: IC50 (μM) against CLC-2.
Setting [5] is: Table 2, read-out: IC50 (CLC-2).

Values joined by “and” are separate entries in the source; they are usually repeats but may differ in a detail not shown here. Equal values may be shown once. Read-outs that look alike come from different tables or passages of the source.

T1 sequence (P51788 whole entry): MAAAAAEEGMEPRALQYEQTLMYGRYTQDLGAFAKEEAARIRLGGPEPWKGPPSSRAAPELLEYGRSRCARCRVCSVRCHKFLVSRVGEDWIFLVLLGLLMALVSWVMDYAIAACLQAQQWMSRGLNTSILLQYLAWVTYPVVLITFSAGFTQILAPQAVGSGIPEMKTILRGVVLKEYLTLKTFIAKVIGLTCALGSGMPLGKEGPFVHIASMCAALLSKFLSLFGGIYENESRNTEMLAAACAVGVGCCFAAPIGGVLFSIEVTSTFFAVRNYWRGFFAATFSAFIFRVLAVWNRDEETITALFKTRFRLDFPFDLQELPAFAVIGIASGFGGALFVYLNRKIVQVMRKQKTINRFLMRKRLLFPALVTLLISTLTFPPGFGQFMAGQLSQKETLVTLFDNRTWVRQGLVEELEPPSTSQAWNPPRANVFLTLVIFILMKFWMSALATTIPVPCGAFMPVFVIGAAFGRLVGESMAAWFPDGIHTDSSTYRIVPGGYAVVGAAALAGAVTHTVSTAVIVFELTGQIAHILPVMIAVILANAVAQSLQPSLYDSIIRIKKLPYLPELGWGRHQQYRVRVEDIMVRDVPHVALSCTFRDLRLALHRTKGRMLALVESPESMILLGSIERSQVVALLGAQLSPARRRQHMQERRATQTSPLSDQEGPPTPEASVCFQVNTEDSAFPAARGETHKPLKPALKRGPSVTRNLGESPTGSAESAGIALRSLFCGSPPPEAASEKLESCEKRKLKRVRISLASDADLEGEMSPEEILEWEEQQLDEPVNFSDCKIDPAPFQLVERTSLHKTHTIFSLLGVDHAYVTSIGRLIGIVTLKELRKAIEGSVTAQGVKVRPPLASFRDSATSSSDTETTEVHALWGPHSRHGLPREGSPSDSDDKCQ
Sequence of CLC-1 (P35523 whole entry): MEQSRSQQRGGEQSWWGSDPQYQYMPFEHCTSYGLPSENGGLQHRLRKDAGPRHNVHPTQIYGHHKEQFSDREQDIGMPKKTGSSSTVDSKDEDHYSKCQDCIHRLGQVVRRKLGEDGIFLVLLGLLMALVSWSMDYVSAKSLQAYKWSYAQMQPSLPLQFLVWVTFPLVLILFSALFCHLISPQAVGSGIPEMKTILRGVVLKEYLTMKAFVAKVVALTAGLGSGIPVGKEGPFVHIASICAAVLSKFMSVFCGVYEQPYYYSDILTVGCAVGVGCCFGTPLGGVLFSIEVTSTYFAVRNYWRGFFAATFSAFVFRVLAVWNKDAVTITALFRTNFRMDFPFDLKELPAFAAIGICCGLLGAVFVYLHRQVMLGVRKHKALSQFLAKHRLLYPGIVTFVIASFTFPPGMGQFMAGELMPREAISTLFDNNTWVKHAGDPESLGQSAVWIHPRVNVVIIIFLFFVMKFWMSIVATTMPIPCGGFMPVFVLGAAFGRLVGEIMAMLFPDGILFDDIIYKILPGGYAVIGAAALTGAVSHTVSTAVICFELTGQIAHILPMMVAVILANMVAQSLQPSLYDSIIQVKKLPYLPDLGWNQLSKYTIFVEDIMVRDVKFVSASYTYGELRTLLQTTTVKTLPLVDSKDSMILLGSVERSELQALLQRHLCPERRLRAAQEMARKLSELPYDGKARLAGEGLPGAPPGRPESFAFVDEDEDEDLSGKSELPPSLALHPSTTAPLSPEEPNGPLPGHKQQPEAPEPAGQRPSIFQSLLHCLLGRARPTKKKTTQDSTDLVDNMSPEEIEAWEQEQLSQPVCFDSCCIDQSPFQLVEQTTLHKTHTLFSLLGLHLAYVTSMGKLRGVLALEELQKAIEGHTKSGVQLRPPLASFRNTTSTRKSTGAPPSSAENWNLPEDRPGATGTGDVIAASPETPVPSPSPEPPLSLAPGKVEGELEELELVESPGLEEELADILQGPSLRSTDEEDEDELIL

For orientation: IC50 means the midpoint of a concentration-inhibition curve. For `O=C(CCCC[C@@H]1SC[C@@H]2NC(=O)N[C@@H]21)NCCOCCOCCOCCOCCC(=O)NCCOc1ccc(Cl)c(Nc2ccccc2C(=O)O)c1Cl` [AK3-294], in test [1] (setting [4]), the IC50 was 77.1 µM.
Take `O=S(=O)(O)c1cc(N=C=S)ccc1C=Cc1ccc(N=C=S)cc1S(=O)(=O)O` [DIDS]: the “potency of previously reported small-molecule inhibitors of CLC-2” value in test [2] is listed as “mM range”.
Take `O=C(O)c1ccccc1Nc1ccccc1` [DPC, reference compound]: the “% inhibition at the concentration listed (in parenthesis)” value (“% inhibition” below) in test [1] was “(27%)”. Further, the IC50 in test [1] (setting [4]) is > 312 µM. Moreover, the “potency of previously reported small-molecule inhibitors of CLC-2” value in test [2] is “mM range”.
In the case of `Cc1ccc(Cl)c(Nc2ccccc2C(=O)O)c1Cl` [MCFA, meclofenamate, reference compound], the IC50 in test [1] (setting [5]) was 8.7 ± 0.3 µM; in test [1] (setting [4]) it was 14 µM and 13.9 µM; in test [3], 60 ± 9 µM.
Regarding `CCc1cccc(CC)c1Nc1ccccc1C(=O)O` [AK3-97C], the IC50 in test [1] (setting [4]) was found to be 86.3 µM.
In the case of `Cc1ccccc1COc1ccc(Cl)c(Nc2ccccc2C(=O)O)c1Cl` [EEGI-055], in test [1] (setting [4]), the IC50 is 1.2 µM.
For the compound `Cc1ccc(Cl)c(Nc2ncccc2C(=O)O)c1Cl` [AK3-108B], the IC50 in test [1] (setting [5]) was 4 ± 0.7 µM; in test [1] (setting [4]), 1.79 µM; in test [3], > 30 µM. Moreover, in test [3] (at the concentration listed in the same cell), the “percent inhibition of CLC-1 at highest concentration tested (in parenthesis)” value was 5%.
Take `O=C(O)c1cccc2c1[nH]c1c(Cl)ccc(OCc3ccccc3)c12` [AK3-251]: the “% inhibition” value in test [1] is listed as “(5%)”. Moreover, in test [1] (setting [4]), the IC50 is > 120 µM.
On to `Cc1cccc(C)c1Nc1ccccc1C(=O)O` [AK2-289C], for which the IC50 in test [1] (setting [4]) came out at 23.4 µM.
In the case of `Cc1ccc(Cl)c(Nc2cccc(C(=O)O)c2)c1Cl` [AK3-97A], in test [1], the “% inhibition” value is reported as “(36%)”. Besides, the IC50 in test [1] (setting [4]) was > 141 µM.
On the same counts, the results for `O=C(O)c1ccccc1Nc1ccc(Cl)cc1Cl` [AK2-200A] are “(13%)” and > 120 µM.
On to `Cc1ccc(Cl)c(Nc2ccccc2C(=O)O)c1` [AK2-214A], for which, in test [1], the “% inhibition” value is recorded as “(48%)”. Further, the IC50 in test [1] (setting [4]) was > 120 µM.
`O=C(O)c1ccccc1Nc1c(Cl)ccc(C(F)(F)F)c1Cl` [AK2-270A]: the IC50 in test [1] (setting [4]) came to 35.7 µM.
In the case of `NCCOc1ccc(Cl)c(Nc2ccccc2C(=O)O)c1Cl` [AK3-296], the “% inhibition” value in test [1] is “(7%)”. Moreover, in test [1] (setting [4]), the IC50 is > 120 µM.
As to `O=C(O)c1ccccc1Nc1c(Cl)cc(Cl)cc1Cl` [AK2-214B], the “% inhibition” value in test [1] is given as “(22%)”. Also, the IC50 in test [1] (setting [4]) was > 120 µM.
On to `NC(=O)c1cccc(COc2ccc(Cl)c(Nc3ccccc3C(=O)O)c2Cl)c1` [AK3-226], for which the “% inhibition” value in test [1] was “(5%)”. The IC50 in test [1] (setting [4]) was > 120 µM.
With `O=C(O)c1ccccc1Nc1c(Cl)ccc(OCC2CCCCC2)c1Cl` [AK3-101A], the IC50 in test [1] (setting [4]) was determined as 2.98 µM.
As for `Cc1ccc(Cl)c(Nc2ccc(C(=O)O)cc2)c1Cl` [AK3-97B], in test [1], the “% inhibition” value was “(8%)”. Also, the IC50 in test [1] (setting [4]) is > 144 µM.
Take `Cc1ccc(Cl)c(Nc2ccccc2-c2nnn[nH]2)c1Cl` [AK3-89]: the IC50 in test [1] (setting [4]) turned out to be 33.4 µM.
Consider `Cc1ccc(Cl)c(Nc2ccccc2OS(=O)(=O)O)c1Cl` [AK2-262], for which, in test [1], the “% inhibition” value is given as “(28%)”. In addition, the IC50 in test [1] (setting [4]) is > 120 µM.
`CCOP(=O)(O)c1ccccc1Nc1c(Cl)ccc(C)c1Cl` [AK3-119]: the “% inhibition” value in test [1] is reported as “(41%)”. Also, in test [1] (setting [4]), the IC50 was > 354 µM.
As to `O=C(O)c1ccccc1Nc1ccc(Cl)c(Cl)c1` [AK2-200B], the “% inhibition” value in test [1] is given as “(12%)”. In addition, the IC50 in test [1] (setting [4]) was > 120 µM.
Consider `O=C(O)c1cc([N+](=O)[O-])ccc1NCCCc1ccccc1` [NPPB], for which the “potency of previously reported small-molecule inhibitors of CLC-2” value in test [2] is “mM range”.
Turning to `O=C(O)c1ccccc1Nc1c(Cl)ccc(OCCc2ccccc2)c1Cl` [EEGI-060], the IC50 in test [1] (setting [4]) stood at 7.32 µM.
Take `O=C(O)c1cccc(COc2ccc(Cl)c(Nc3ccccc3C(=O)O)c2Cl)c1` [AK3-239]: in test [1] (setting [4]), the IC50 was 17.9 µM.
On to `Cc1ccc(COc2ccc(Cl)c(Nc3ccccc3C(=O)O)c2Cl)cc1` [EEGI-056], for which the IC50 in test [1] (setting [4]) worked out at 15.8 µM.
For the compound `CC(=O)Nc1cccc(COc2ccc(Cl)c(Nc3ccccc3C(=O)O)c2Cl)c1` [AK3-227], the IC50 in test [1] (setting [4]) worked out at 81.9 µM.
Take `COCOc1ccc(Cl)c(Nc2ccccc2C(=O)O)c1Cl` [AK3-99A]: in test [1] (setting [4]), the IC50 turned out to be 2.04 µM.
The same measure, in the same setting: next, `O=C(O)c1ccccc1COc1ccc(Cl)c(Nc2ccccc2C(=O)O)c1Cl` [AK3-250]: 67.8 µM.
Turning to `Cc1ccc(Cl)c(Nc2cccc(C)c2C(=O)O)c1Cl` [AK2-288C], the “% inhibition” value in test [1] is on record as “(37%)”. Further, in test [1] (setting [4]), the IC50 is > 102 µM.
For `O=C(O)c1ccccc1Nc1cc(Cl)ccc1Cl` [AK2-209B], the “% inhibition” value in test [1] is on record as “(23%)”. The IC50 in test [1] (setting [4]) is > 120 µM.
On to `O=C(O)c1ccccc1Nc1c(Cl)ccc(OCc2ccccc2F)c1Cl` [AK3-261], for which, in test [1] (setting [4]), the IC50 is 1.16 µM.
Turning to `Cc1ccc(Cl)c(Nc2cccnc2C(=O)O)c1Cl` [AK3-107A], the “% inhibition” value in test [1] is “(12%)”. Moreover, the IC50 in test [1] (setting [4]) is > 222 µM.
Take `O=C(O)c1ccc(COc2ccc(Cl)c(Nc3ccccc3C(=O)O)c2Cl)cc1` [AK3-224]: the “% inhibition” value in test [1] was “(4%)”. In addition, the IC50 in test [1] (setting [4]) was > 120 µM.
On to `Cc1cccc(Nc2ccccc2C(=O)O)c1Cl` [AK2-200C], for which the “% inhibition” value in test [1] is “(43%)”. In addition, the IC50 in test [1] (setting [4]) is > 120 µM.
Consider `O=C(O)c1ccccc1Nc1c(Cl)ccc(-c2ccccc2)c1Cl` [AK3-100A], for which the IC50 in test [1] (setting [4]) stood at 12.6 µM.
Consider `Cc1ccc(Cl)c(Nc2ccccc2C(N)=O)c1Cl` [AK3-124], for which the IC50 in test [1] (setting [4]) came to 42.4 µM.
As to `COc1ccccc1-c1ccc(Cl)c(Nc2ccccc2C(=O)O)c1Cl` [AK3-101B], the IC50 in test [1] (setting [4]) came out at 5.29 µM.
With `Cc1ccc(Cl)c(Nc2cc(F)ccc2C(=O)O)c1Cl` [AK3-98A], the IC50 in test [1] (setting [4]) worked out at 13.7 µM.
The same measure, in the same setting: next, `Cc1ccc(C(=O)O)c(Nc2c(Cl)ccc(C)c2Cl)c1` [AK2-288A]: 24.7 µM.
With `Cc1ccc(Cl)c(Nc2ccccc2P(=O)(O)O)c1Cl` [AK3-118], the “% inhibition” value in test [1] was “(6%)”. Besides, the IC50 in test [1] (setting [4]) was > 195 µM.
Regarding `O=C(O)c1ccccc1Nc1c(Cl)ccc(O)c1Cl` [AK3-102A], in test [1] (setting [4]), the IC50 was found to be 3.6 µM.
As for `C=C(C)c1ccc(Cl)c(Nc2ccccc2C(=O)O)c1Cl` [AK2-289B], the IC50 in test [1] (setting [4]) is 7.16 µM.
Consider `O=C(O)c1ccccc1Nc1c(F)cccc1F` [AK2-214C], for which the “% inhibition” value in test [1] is “(41%)”. For the same compound, the IC50 in test [1] (setting [4]) was > 120 µM.
With `NC(=O)c1ccc(COc2ccc(Cl)c(Nc3ccccc3C(=O)O)c2Cl)cc1` [AK3-219], in test [1], the “% inhibition” value is recorded as “(15%)”. Besides, the IC50 in test [1] (setting [4]) was > 120 µM.
`CCc1ccc(Cl)c(Nc2ccccc2C(=O)O)c1Cl` [AK2-292]: the IC50 in test [1] (setting [4]) stood at 7.69 µM.
On to `O=C(O)c1cccc2c1[nH]c1c(Cl)ccc(C(F)(F)F)c12` [AK2-270B], for which, in test [1], the “% inhibition” value was “(−48%)”. Also, in test [1] (setting [4]), the IC50 was > 120 µM.
Take `Cc1ccc(Cl)c(Nc2cnccc2C(=O)O)c1Cl` [AK3-108A]: in test [1] (setting [4]), the IC50 was determined as 115 µM.
`O=C(O)c1cccnc1Nc1cccc(C(F)(F)F)c1` [NFA, reference compound]: the “% inhibition” value in test [1] is “(0%)”. Further, the IC50 in test [1] (setting [4]) was > 120 µM.
As for `O=C(O)c1c2ccccc2cc2ccccc12` [Compound 9-AC], the “potency of previously reported small-molecule inhibitors of CLC-2” value in test [2] was “mM range”.
As to `NC(=O)c1ccccc1COc1ccc(Cl)c(Nc2ccccc2C(=O)O)c1Cl` [AK3-225], the “% inhibition” value in test [1] was “(0%)”. For the same compound, in test [1] (setting [4]), the IC50 was > 120 µM.
`Cc1cccc(COc2ccc(Cl)c(Nc3ccccc3C(=O)O)c2Cl)c1` [EEGI-054]: the IC50 in test [1] (setting [4]) was found to be 7.93 µM.
Turning to `Cc1ccc(Cl)c(Nc2ccncc2C(=O)O)c1Cl` [AK3-107B], the “% inhibition” value in test [1] is “(16%)”. The concentration for half-maximal inhibition (IC50) in test [1] (setting [4]) is > 42 µM.
Take `COc1ccc(Cl)c(Nc2ccccc2C(=O)O)c1Cl` [AK2-289A]: the IC50 in test [1] (setting [4]) amounted to 9.86 µM.
Consider `Cc1ccc(Cl)c2[nH]c3c(C(=O)O)ccc(F)c3c12` [AK3-98B], for which the “% inhibition” value in test [1] was “(−16%)”. Moreover, in test [1] (setting [4]), the IC50 was > 69 µM.
Turning to `O=C(O)c1ccccc1Nc1c(Cl)ccc(C2=CCCCC2)c1Cl` [AK3-103B], the IC50 in test [1] (setting [4]) worked out at 48.8 µM.
With `O=C(O)c1ccccc1Nc1c(Cl)cccc1Cl` [AK2-209A], the IC50 in test [1] (setting [4]) was 22.1 µM.
